Results: US6514989B1, “Aromatic and heteroaromatic substituted 1,2,4-triazolo pyridine derivatives” (Hoffmann-La Roche Inc., priority 2001, dated 2003)
pKi: −log10 of the molar value.

What was measured:
[1] = molecular target: T1, human adenosine A2a receptor (Homo sapiens, UniProt P29274); assay: Human adenosine A2a receptor radioligand binding assay ([125I]-AB-MECA, CHO cell membranes); conditions: for Selectivity A1/A2a: ratio obtained by dividing KiHA1 by KiHA2A; for pKi: recombinant human A2a receptor expressed in CHO cells, Ki from IC50 by Cheng-Prussoff equation, read-out: hA2a Ki
T1 construct: expressed in transfected cells; host or cells: CHO cells, semliki forest virus expression system; membrane preparation
Description: Human Adenosine A2a Receptor
The gene encoding human adenosine A2a receptor was recombinantly introduced and expressed in chinese hamster ovary (CHO) cells using the semliki forest virus expression system. Cells were harvested, washed twice by centrifugation, homogenized and again washed by centrifugation. The final washed membrane pellet was suspended in a Tris (50 mM) buffer containing 120 mM NaCl, 5 mM KCl, 2 mM CaCl2 and 10 mM MgCl2 (pH 7.4) (buffer A). The [^125I]-AB-MECA ([N(6)-(4-amino-3-iodobenzyl)-5′-N-methylcarbamoyl-adenosine]; 0.05 nM) binding assay was carried out in 96-well a plates in the presence of 20 μg of membrane protein and 0.1 U adenosine deaminase in a final volume of […] of buffer A. Non-specific binding was defined using xanthine amine congener (XAC; 2 μM). Compounds were tested at 10 concentrations from 10 μM-0.3 nM. All assays were conducted in duplicate and repeated at least two times. Assay plates were incubated for 1 hour at room temperature before filtration through Whatman Unifilter GF/C 96-well filter plates (preincubated with 0.3% polyethyleneimine). Filters were washed 3 times with 0.3 ml of cold (4° C.) Tris (50 mM)—NaC […]
[…] 1 (120 mM) buffer (pH 7.4). Microscint 40 scintillation fluid (50 μl) was added to each well and the wells sealed. After gentle shaking for 20 min, plates were counted on a Packard Topcount scintillation counter. IC50 values were calculated using a non-linear curve fitting program and Ki values calculated using the Cheng-Prussoff equation.
(§1) In accordance with the invention, it has been shown that compounds of formula I have a high affinity toward the A2A receptor. In Table I below specific values of prepared compounds are described, Values of KiHA2A and KiHA1 are shown in Table I for compounds of formula 1. A low Ki value is indicative of a particular compound's high affinity toward a particular receptor and conversely a higher Ki value is indicative of a lower affinity for that compound toward a particular receptor. […] Generally speaking, compounds that have a higher HA1/HA2A ratio are able to give a substantially complete blockade of the HA2A receptor without substantially affecting the A1 receptor.

[2] = molecular target: T2, human adenosine A1 receptor (Homo sapiens, UniProt P30542); assay: Human adenosine A1 receptor radioligand binding assay ([3H]-DPCPX, SPA, CHO cell membranes); conditions: recombinant human A1 receptor expressed in CHO cells; [3H]-DPCPX 0.6 nM; Ki from IC50 by Cheng-Prussoff equation; read-out: hA1 Ki
T2 construct: expressed in transfected cells; host or cells: CHO cells, semliki forest virus expression system; membrane preparation
T2 sequence (P30542 1-326): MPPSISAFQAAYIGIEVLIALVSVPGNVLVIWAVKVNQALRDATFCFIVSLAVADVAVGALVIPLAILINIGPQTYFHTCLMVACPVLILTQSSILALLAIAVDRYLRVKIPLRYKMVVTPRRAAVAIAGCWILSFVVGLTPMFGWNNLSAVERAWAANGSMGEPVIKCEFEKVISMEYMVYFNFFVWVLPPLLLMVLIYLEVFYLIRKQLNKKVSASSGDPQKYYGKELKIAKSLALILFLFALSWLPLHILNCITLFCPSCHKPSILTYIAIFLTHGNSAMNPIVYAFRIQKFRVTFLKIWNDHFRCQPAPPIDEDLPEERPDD
Description: Human Adenosine A^1 Receptor
The gene encoding human adenosinie A1 receptor was recombinantly introduced and expressed in chinese hamster ovary (CHO) cells using the semliki forest virus expression system. Cells were harvested, washed twice by centrifugation, homogenized and again washed by centrifugation. The final washed membrane pellet was suspended in a Tris (50 mM) buffer containing 120 mM NaCl, 5 mM KCl, 2 mM CaCl2 and 10 mM MgCl2 (pH 7.4) (buffer A). The [^3H]-DPCPX (([propyl-3H]8-cyclopentyl-1,3-dipropyxanthine); 0.6 nM) binding assay was carried out in 96-well plates in the presence of 2.5 μg of membrane protein, 0.5 mg of Ysi-poly-1-lysine SPA beads and 0.1 U adenosine deaminase in a final volume of 200 μl of buffer A. Non-specific binding was defined using xanthine amine congener (XAC; 2 μM). Compounds were tested at 10 concentrations from 10 μM-0.3 nM. All assays were conducted in duplicate and repeated at least two times. Assay plates were incubated for 1 hour at room temperature before centrifugation and then bound ligand determined using a Packard Topcount scintillation counter. IC50 values were calculated using a non-linear curve fitting program and Ki values calculated using the Cheng-Prussoff equation.
as §1

T1 sequence (P29274 whole entry): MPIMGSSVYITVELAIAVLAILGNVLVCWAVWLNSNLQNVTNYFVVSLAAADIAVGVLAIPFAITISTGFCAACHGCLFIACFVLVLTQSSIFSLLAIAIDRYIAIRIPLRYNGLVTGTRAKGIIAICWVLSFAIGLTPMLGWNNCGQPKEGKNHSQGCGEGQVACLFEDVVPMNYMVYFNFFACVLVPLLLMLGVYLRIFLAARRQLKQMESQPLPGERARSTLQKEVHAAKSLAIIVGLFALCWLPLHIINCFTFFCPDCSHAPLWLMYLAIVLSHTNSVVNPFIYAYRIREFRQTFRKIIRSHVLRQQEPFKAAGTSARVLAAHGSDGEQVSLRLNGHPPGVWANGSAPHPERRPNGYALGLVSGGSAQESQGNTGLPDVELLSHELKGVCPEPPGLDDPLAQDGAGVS

COc1ccc(-c2cccc(Cl)c2)n2nc(NC(=O)c3ccc(C)s3)nc12 [Example 25, 5-Methyl-thiophene-2-carboxylic acid [5-(3-chloro-phenyl)-8-methoxy-[1,2,4]triazolo[1,5-a]pyridin-2-yl]-amide]
Selectivity A1/A2a [1]: 12.7
pKi [1]: 6.78
pKi [2]: 5.68

COc1ccc(-c2ccc(OC)c3nc(NC(=O)c4ccc(C)s4)nn23)cc1 [Example 28, 5-Methyl-thiophene-2-carboxylic acid [8-methoxy-5-(4-methoxy-phenyl) [1,2,4]triazolo[1,5-a]pyridin-2-yl]-amide]
Selectivity A1/A2a [1]: 36.5
pKi [1]: 6.85
pKi [2]: 5.28

COc1ccc(-c2cccc(C(F)(F)F)c2)n2nc(NC(=O)c3ccc(C)s3)nc12 [Example 40, 5-Methyl-thiophene-2-carboxylic acid [8-methoxy-5-(3-trifluoromethyl-phenyl)-[1,2,4]triazolo[1,5-a]pyridin-2-yl]-amide]
pKi [1]: 6.26

COc1ccc(-c2ccc(Cl)s2)n2nc(NC(=O)c3ccc(C)s3)nc12 [Example 31, 5-Methyl-thiophene-2-carboxylic acid [5-(5-chloro-thiophen-2-yl)-8-methoxy-[1,2,4]triazolo[1,5-a]pyridin-2-yl]-amide]
Selectivity A1/A2a [1]: 39.6
pKi [1]: 7.53
pKi [2]: 5.93

COc1cccc(C(=O)Nc2nc3c(OC)ccc(-c4cccs4)n3n2)c1 [Example 19, 3-Methoxy-N-(8-methoxy-5-thiophen-2-yl-[1,2,4]triazolo[1,5-a]pyridin-2-yl)-benzamide]
Selectivity A1/A2a [1]: 24.6
pKi [1]: 6.70
pKi [2]: 5.31

COc1ccc(-c2cccs2)n2nc(NC(=O)c3cccc(Cl)c3)nc12 [Example 14, 3-Chloro-N-(8-methoxy-5-thiophen-2-yl-[1,2,4]triazolo[1,5-a]pyridin-2-yl)-benzamide]
Selectivity A1/A2a [1]: 17.4
pKi [1]: 6.85
pKi [2]: 5.61

COc1ccc(-c2cccc(NC(C)=O)c2)n2nc(NC(=O)c3ccc(C)s3)nc12 [Example 41, 5-Methyl-thiophene-2-carboxylic acid [5-(3-acetylamino-phenyl)-8-methoxy-[1,2,4]triazolo[1,5-a]pyridin-2-yl]-amide]
pKi [1]: 6.59

CCOC(=O)c1cccc(-c2ccc(OC)c3nc(NC(=O)c4ccc(F)cc4)nn23)c1 [Example 51, 3-[2-(4-Fluoro-benzoylamino)-8-methoxy-[1,2,4]triazolo[1,5-a]pyridin-5-yl]-benzoic acid ethyl ester]
pKi [1]: 6.32

COc1ccc(-c2cccs2)n2nc(NC(=O)c3cccc(CCl)c3)nc12 [Example 20, 3-Chloromethyl-N-(8-methoxy-5-thiophen-2-yl-[1,2,4]triazolo[1,5-a]pyridin-2-yl)-benzamide]
Selectivity A1/A2a [1]: 15.9
pKi [1]: 6.68
pKi [2]: 5.48

COc1ccc(-c2ccc(SC)cc2)n2nc(NC(=O)c3ccc(F)cc3)nc12 [Example 50, 4-Fluoro-N-[8-methoxy-5-(4-methylsulfanyl-phenyl)-[1,2,4]triazolo[1,5-a]pyridin-2-yl]-benzamide]
pKi [1]: 6.07

COc1ccc(-c2ccccc2)n2nc(NC(=O)c3ccccc3F)nc12 [Example 21, 2-Fluoro-N-(8-methoxy-5-phenyl-[1,2,4]triazolo[1,5-a]pyridin-2-yl)-benzamide]
pKi [1]: 6.42

COc1ccc(-c2ccc(Cl)cc2)n2nc(NC(=O)c3ccc(F)cc3)nc12 [Example 48, N-[5-(4-Chloro-phenyl)-8-methoxy-[1,2,4]triazolo[1,5-a]pyridin-2-yl]-4-fluoro-benzamide]
pKi [1]: 6.21

5-Methyl-thiophene-2-carboxylic acid[8-methoxy-5-(4-vinyl-phenyl)-[1,2,4]triazolo[1,5-a]pyridin-2-yl]-amide [Example 44]
pKi [1]: 6.61

COc1ccc(-c2ccc(OC)c3nc(NC(=O)c4ccc(F)cc4)nn23)cc1 [Example 49, 4-Fluoro-N-[8-methoxy-5-(4-methoxy-phenyl)-[1,2,4]triazolo[1,5-a]pyridin-2-yl]-benzamide]
pKi [1]: 6.46

COc1ccc(-c2ccc3[nH]ccc3c2)n2nc(NC(=O)c3ccc(C)s3)nc12 [Example 45, 5-Methyl-thiophene-2-carboxylic acid [5-(1H-indol-5-yl)-8-methoxy-[1,2,4]triazolo[1,5-a]pyridin-2-yl]-amide]
pKi [1]: 6.07

COc1ccc(-c2ccccc2)n2nc(NC(=O)c3ccccc3Br)nc12 [Example 22, 2-Bromo-N-(8-methoxy-5-phenyl-[1,2,4]triazolo[1,5-a]pyridin-2-yl)-benzamide]
pKi [1]: 6.57

COc1ccc(-c2cccc(C)c2)n2nc(NC(=O)c3ccc(C)s3)nc12 [Example 38, 5-Methyl-thiophene-2-carboxylic acid (8-methoxy-5-m-tolyl [1,2,4]triazolo[1,5-a]pyridin-2-yl)-amide]
pKi [1]: 6.56

COc1ccc(-c2ccccc2Cl)n2nc(NC(=O)c3ccc(C)s3)nc12 [Example 36, 5-Methyl-thiophene-2-carboxylic acid [5-(2-chloro-phenyl)-8-methoxy-[1,2,4]triazolo[1,5-a]pyridin-2-yl]-amide]
pKi [1]: 6.28

COc1ccc(-c2ccc(SC)cc2)n2nc(NC(=O)c3ccc(C)s3)nc12 [Example 42, 5-Methyl-thiophene-2-carboxylic acid [8-methoxy-5-(4-methylsulfanyl-phenyl)-[1,2,4]triazolo[1,5-a]pyridin-2-yl]-amide]
pKi [1]: 6.54

COc1ccc(-c2ccc(C)cc2)n2nc(NC(=O)c3ccc(C)s3)nc12 [Example 39, 5-Methyl-thiophene-2-carboxylic acid (8-methoxy-5-p-tolyl-[1,2,4]triazolo[1,5-a]pyridin-2-yl)-amide]
pKi [1]: 6.35

COc1ccc(-c2ccccc2C)n2nc(NC(=O)c3ccc(C)s3)nc12 [Example 37, 5-Methyl-thiophene-2-carboxylic acid (8-methoxy-5-o-tolyl-[1,2,4]triazolo[1,5-a]pyridin-2-yl)-amide]
pKi [1]: 6.03

CCOC(=O)c1cccc(-c2ccc(OC)c3nc(NC(=O)c4ccc(C)s4)nn23)c1 [Example 46, 3-{8-Methoxy-2-[(5-methyl-thiophene-2-carbonyl)-amino]-[1,2,4]triazolo[1,5-a]pyridin-5-yl}-benzoic acid ethyl ester]
pKi [1]: 6.48

COc1ccc(-c2cccc(C(C)=O)c2)n2nc(NC(=O)c3ccc(C)s3)nc12 [Example 43, 5-Methyl-thiophene-2-carboxylic acid [5-(3-acetyl-phenyl)-8-methoxy-[1,2,4]triazolo[1,5-a]pyridin-2-yl]-amide]
pKi [1]: 6.21

COc1ccc(-c2cccc(Cl)c2)n2nc(NC(=O)c3ccc(F)cc3)nc12 [Example 47, N-[5-(3-Chloro-phenyl)-8-methoxy-[1,2,4]triazolo[1,5-a]pyridin-2-yl]-4-fluoro-benzamide]
pKi [1]: 6.57
